# According to patent US20040121994A1, “Novel amides that activate soluble guanylate cyclase” (priority 2002, published 2004):
# Biological target: T1, soluble guanylate cyclase (sGC), α1 and β1 subunits of guanylate cyclase expressed in Sf9 cells (Homo sapiens, UniProt Q02108+Q02153)
# T1 construct: made in house; host or cells: Sf9 insect cells (baculovirus co-infection)
# T1 sequence (Q02108 1-690): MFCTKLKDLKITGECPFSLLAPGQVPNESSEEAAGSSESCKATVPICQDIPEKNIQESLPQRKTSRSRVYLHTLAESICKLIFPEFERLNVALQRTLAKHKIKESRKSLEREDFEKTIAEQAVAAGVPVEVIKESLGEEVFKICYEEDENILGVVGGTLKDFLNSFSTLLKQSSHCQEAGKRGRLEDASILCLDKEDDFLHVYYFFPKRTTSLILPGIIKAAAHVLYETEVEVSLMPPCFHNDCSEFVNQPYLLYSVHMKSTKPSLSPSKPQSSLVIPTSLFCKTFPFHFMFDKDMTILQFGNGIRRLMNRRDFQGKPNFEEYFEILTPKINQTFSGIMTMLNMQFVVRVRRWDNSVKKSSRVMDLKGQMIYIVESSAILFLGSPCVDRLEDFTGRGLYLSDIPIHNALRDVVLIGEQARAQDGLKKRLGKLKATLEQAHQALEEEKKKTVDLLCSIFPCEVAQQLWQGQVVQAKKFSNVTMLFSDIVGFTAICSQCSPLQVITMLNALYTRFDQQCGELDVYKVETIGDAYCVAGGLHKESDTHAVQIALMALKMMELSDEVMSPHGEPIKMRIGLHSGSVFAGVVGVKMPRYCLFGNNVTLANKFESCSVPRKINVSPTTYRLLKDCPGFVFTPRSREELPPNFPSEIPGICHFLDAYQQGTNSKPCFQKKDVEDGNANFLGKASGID
# T1 sequence (Q02153 1-619): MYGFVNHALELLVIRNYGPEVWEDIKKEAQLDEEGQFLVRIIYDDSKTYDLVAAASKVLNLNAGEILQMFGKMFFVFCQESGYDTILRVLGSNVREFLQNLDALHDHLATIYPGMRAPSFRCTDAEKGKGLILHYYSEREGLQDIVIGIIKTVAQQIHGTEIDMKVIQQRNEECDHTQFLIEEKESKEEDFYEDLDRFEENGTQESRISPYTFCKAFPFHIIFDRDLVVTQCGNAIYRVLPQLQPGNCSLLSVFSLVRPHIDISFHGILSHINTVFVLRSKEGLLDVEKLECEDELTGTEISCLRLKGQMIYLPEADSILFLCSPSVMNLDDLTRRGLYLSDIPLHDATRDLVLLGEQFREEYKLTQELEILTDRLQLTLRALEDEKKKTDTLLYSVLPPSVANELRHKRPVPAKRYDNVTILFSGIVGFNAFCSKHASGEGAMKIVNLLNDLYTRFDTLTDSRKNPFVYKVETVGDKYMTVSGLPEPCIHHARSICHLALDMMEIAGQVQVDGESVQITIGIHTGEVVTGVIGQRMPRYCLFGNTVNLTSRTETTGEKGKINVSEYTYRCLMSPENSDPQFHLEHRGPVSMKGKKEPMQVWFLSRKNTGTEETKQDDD
# Experiment: Guanylate cyclase assay (formation of cyclic GMP from GTP)
# Assay type: biochemical
# Conditions: for Mean activation at 100 μM: (activity of compound at 100 μM with 1 μM SNP)−(activity of compound at 100 μM)/(activity of SNP at 1 μM)−(basal activity of sGC); for Mean efficacy of compound combined with 1 μM of SNP, [%]: compound at 100 μM with 1 μM sodium nitro prusside (SNP); for Emax at 100 µM: read-out: Mean basal efficacy of compound alone at 100 μM, [%]
# Experimental: Sf9 cells were cultured in Sf-90011 medium supplemented with 10% (v/v) fetal calf serum at 28° C. to give a count of 6×10^5 cells/ml. The cells were then infected with a mixture of the virus stocks for the α1 and β1 subunits of guanylate cyclase at a multiplicity of infection of 0.1 pfu/cell. The cells were harvested 72 hours after infection and were pelleted by centrifugation. The resulting cell pellets were homogenized with Polytron homogenizer in 3 volumes of 20 mM Tris-HCl (pH 7.6) containing 1 mM EDTA, 5 mM dithiothreitol, 90 mM NaCl, 10% glycerol, and protease inhibitors mix (Roche Molecular Biochemicals). The homogenate was centrifuged at 50,000×g for 60 minutes and the supernatant was aliquotted and stored at −80° C.
# Compounds of the present invention were dissolved in DMSO to make 100 mM and saved as stocks at −20° C. When compounds were tested, prepared 10-fold concentrated solutions with 10% DMSO. Then added 10 μl of 10-fold concentrated compound solutions to the reaction mixture of total 100 μl.
# Guanylate cyclase activity was measured by the formation of cyclic GMP from GTP in a total volume of 100 μl. Guanylate cyclase-expressed Sf9 cell high-speed supernatant was used as an enzyme source for the assay. The reaction mixture containing 0.1 μl enzyme (Sf9 high-speed sup), compound solution, 50 mM Tris-HCl (pH 7.6), 4 mM MgCl2, 0.5 mM IBMX, 15 mM creatine phosphate, 20 μg creatine phosphokinase, 0.1% BSA and 1 mM GTP was incubated at 37° C. for 15 minutes. After the reaction, 0.9 ml of 50 mM sodium acetate buffer (pH 5.8) was added followed by boiling for 3 minutes to stop the reaction. The solution was centrifuged at 3000 rpm for 15 minutes at room temperature and cyclic GMP in 20 μl of the resulting supernatant was measured according to the protocol of Amersham cyclic GMP enzymeimmunoassay system (purchased from Sigma, catalogue number RPN 226).
# Compounds of the present invention were tested at 100 μM with and without 1 μM sodium nitro prusside (SNP). 1-Benzyl-3-hydroxymethyl-2-furylindazole (YC-1) was included as a standard for each assay. The data was normalized with the activity of 100 μM YC-1 (without SNP) as 100%. Mean basal efficacy, in Table 1, was expressed as a percentage of 100 μM YC-1 (without SNP).
# The mean activation, in Table 1, was calculated based on the formula: (activity of compound of the present invention at 100 μM with 1 μM SNP)−(activity of compound of the present invention at 100 μM)/(activity of SNP at 1 μM)−(basal activity of sGC).
# [1] = normalized with the activity of 100 μM YC-1 (without SNP) as 100%
# [2] = compound at 100 μM without SNP, normalized with the activity of 100 μM YC-1 (without SNP) as 100%
Compound,Mean activation at 100 μM,"Mean efficacy of compound combined with 1 μM of SNP, [%] [1]",Emax at 100 µM [2],"Mean basal efficacy of compound alone at 100 μM, [%] [2]"
"Cc1ccc(/C=C/C(=O)NC2CCC(O)CC2)c(Sc2ccc(Cl)cc2)n1 (centres unmarked) [Example 28, (2E)-3-{2-[(4-chlorophenyl)thio]-6-methyl-3-pyridinyl}-N-(4-hydroxycyclohexyl)acrylamide]",2.6,18%,6%,
"CC(CCCC(C)(C)O)NC(=O)/C=C/c1ccccc1Sc1ccc(Cl)cc1 (centres unmarked) [Example 31, (2E)-3-{2-[(4-chlorophenyl)thio]phenyl}-N-(5-hydroxy-1,5-dimethylhexyl)acrylamide]",3.7,187%,93%,
2-[1-((2E)-3-{2-[(3-methylbutyl)thio]phenyl}-2-propenoyl)-4-piperidinyl]ethanol [Example 62],4.7,161%,,136%
"CCCCCSc1ccccc1/C=C/C(=O)NC1CCC(O)CC1 (centres unmarked) [Example 27, (2E)-N-(4-hydroxycyclohexyl)-3-[2-(pentylthio)phenyl]acrylamide]",8.3,278%,115%,
"CS(=O)(=O)NCCCCNC(=O)CCc1ccccc1Sc1ccc(Cl)cc1 [Example 6, 3-{2-[(4-chlorophenyl)thio]phenyl}-N-{4-[(methylsulfonyl)amino]butyl}propanamide]",2.7,11%,2%,
"O=C(/C=C/c1cccnc1Sc1ccccc1Cl)NC1CCC(O)CC1 (centres unmarked) [Example 20, (2E)-3-{2-[(2-chlorophenyl)thio]-3-pyridinyl}-N-(4-hydroxycyclohexyl)acrylamide]",6.3,199%,90%,
"O=C(/C=C/c1ccccc1Sc1ccc(Cl)cc1)NCCCCCO [Example 35, (2E)-3-{2-[(4-chlorophenyl)thio]phenyl}-N-(5-hydroxypentyl)acrylamide]",6.3,228%,49%,
"O=C(/C=C/c1cccnc1Sc1ccc(Cl)cc1)NC1CCC(O)CC1 (centres unmarked) [Example 16, (2E)-3-{2-[(4-chlorophenyl)thio]-3-pyridinyl}-N-(4-hydroxycyclohexyl)acrylamide]",3.6,68%,11%,
"O=C(/C=C/c1cccnc1Sc1ccc(Br)cc1)NC1CCC(O)CC1 (centres unmarked) [Example 18, (2E)-3-{2-[(4-bromophenyl)thio]-3-pyridinyl}-N-(4-hydroxycyclohexyl)acrylamide]",,113%,43%,
"O=C(CCc1cc(F)ccc1Sc1ccc(Cl)cc1)NCCCCO [Example 8, 3-{2-[(4-chlorophenyl)thio]-5-fluorophenyl}-N-(4-hydroxybutyl)propanamide]",3.1,16%,0%,
"CC(CC(=O)NCCc1ccncc1)c1ccccc1Sc1ccc(Cl)cc1 (centres unmarked) [Example 11, 3-{2-[(4-chlorophenyl)thio]phenyl}-N-[2-(4-pyridinyl)ethyl]butanamide]",2.8,6%,1%,
"O=C(/C=C/c1ccccc1SC1CCCC1)NC1CCCCC1O (centres unmarked) [Example 22, (2E)-3-[2-(cyclopentylthio)phenyl]-N-(2-hydroxycyclohexyl)acrylamide]",3.9,169%,158%,

# More lines, now with the values ahead:
Mean activation at 100 μM,"Mean efficacy of compound combined with 1 μM of SNP, [%] [1]",Emax at 100 µM [2],"Mean basal efficacy of compound alone at 100 μM, [%] [2]",Compound
9.2,212%,66%,,"Cc1ccc(Sc2ccccc2/C=C/C(=O)NCCCCO)cc1 [Example 36, (2E)-N-(4-hydroxybutyl)-3-{2-[(4-methylphenyl)thio]phenyl}acrylamide]"
8.3,165%,115%,,"CC(C)CCSc1ccccc1/C=C/C(=O)N1CCC(O)CC1 [Example 60, 1-((2E)-3-{2-[(3-methylbutyl)thio]phenyl}-2-propenoyl)-4-piperidinol]"
3.5,89%,36%,,"COc1ccc(Sc2ccc(C)cc2)c(/C=C/C(=O)NC2CCC(O)CC2)c1 (centres unmarked) [Example 44, (2E)-N-(4-hydroxycyclohexyl)-3-{5-methoxy-2-[(4-methylphenyl)thio]phenyl}acrylamide]"
6.8,164%,125%,,"CC(C)CCSc1ccccc1/C=C/C(=O)N1CCC(C(N)=O)CC1 [Example 63, 1-((2E)-3-{2-[(3-methylbutyl)thio]phenyl}-2-propenoyl)-4-piperidinecarboxamide]"
19.3,305%,73%,,"CCC(O)CNC(=O)/C=C/c1ccccc1Sc1ccc(Cl)cc1 (centres unmarked) [Example 39, (2E)-3-{2-[(4-chlorophenyl)thio]phenyl}-N-(2-hydroxybutyl)acrylamide]"
4.3,121%,54%,,"O=C(/C=C/c1ccccc1Sc1ccccc1)NC1CCCCC1O (centres unmarked) [Example 46, (2E)-N-(2-hydroxycyclohexyl)-3-[2-(phenylthio)phenyl]acrylamide]"
6.4,175%,68%,,"COc1cccc(Sc2ccccc2/C=C/C(=O)NC2CCC(O)CC2)c1 (centres unmarked) [Example 50, (2E)-N-(4-hydroxycyclohexyl)-3-{2-[(3-methoxyphenyl)thio]phenyl}acrylamide]"
